Reference: paper PMC9676231, “Screening and characterization estrogen receptor ligands from Arnebia euchroma (Royle) Johnst. via affinity ultrafiltration LC-MS and molecular docking” (Frontiers in Plant Science, 2022)
Where two headings read alike, the source gives them in different places.

How the values were obtained:
[1] = biological target: T1, ER α (Homo sapiens, UniProt P03372); assay: Affinity ultrafiltration LC-MS screening (AUF-LC-MS) of Arnebiae Radix extract against ER α; details: specific binding = Aa/Ab (relative peak area active group / denatured group), extract 5.0 mg/ml, ER α 200 µg/ml, 37°C 60 min, <1.5 = non-ligand
T1 construct: purchased Shanghai Tongwei Biotechnology Co., Ltd. (China)
T1 sequence (P03372 1-595): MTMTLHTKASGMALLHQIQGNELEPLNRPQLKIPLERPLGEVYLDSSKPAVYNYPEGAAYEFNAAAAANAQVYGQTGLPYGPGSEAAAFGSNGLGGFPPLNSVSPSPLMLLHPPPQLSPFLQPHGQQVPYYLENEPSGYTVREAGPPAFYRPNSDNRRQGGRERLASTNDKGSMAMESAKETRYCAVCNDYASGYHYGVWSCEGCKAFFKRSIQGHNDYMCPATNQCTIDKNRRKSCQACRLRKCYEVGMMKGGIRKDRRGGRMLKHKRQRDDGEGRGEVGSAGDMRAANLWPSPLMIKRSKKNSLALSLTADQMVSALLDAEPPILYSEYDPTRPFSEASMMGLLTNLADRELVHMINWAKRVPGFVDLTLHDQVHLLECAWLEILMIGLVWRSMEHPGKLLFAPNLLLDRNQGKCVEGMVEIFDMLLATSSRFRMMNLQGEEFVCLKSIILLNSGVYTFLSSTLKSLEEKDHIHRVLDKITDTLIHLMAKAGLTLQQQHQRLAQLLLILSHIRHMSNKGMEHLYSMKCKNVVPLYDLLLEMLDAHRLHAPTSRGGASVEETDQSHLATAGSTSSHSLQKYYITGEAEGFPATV
Protocol: (§1) The above extract was dissolved in DMSO, and the solution was diluted with buffer (pH = 8.0) to a final concentration of 5.0 mg/ml. The sample solution and buffer were successively added to EP tubes. Then buffer, inactivated ER α solution (200 µg/ml, boiled in the water bath for 20 min), and ER α solution (200 µg/ml) were separately added as the blank control group, the denatured control group, and the sample group, respectively. The blank control group and denatured control group were set to exclude some interference factors about background, false positives, and non-specific binding. The group of mixtures was subsequently incubated in the dark at 37°C for 60 min to make a combination balance. Next, each mixture (200 μl) was transferred into an ultrafiltration tube and ultrafiltered at 12,000 rpm for 15 min at 4°C. Then, each group was washed three times with 300 μl of buffer to remove unbound small molecules. Finally, the ligands bound to ER α were dissociated from the complexes by incubating with 300 μl of methanol/water (90/10) for 10 min and then centrifuging at 12,000 rpm for 15 min at room temperature, three times. These ultrafiltrates for each group were dried under nitrogen gas at room temperature and reconstituted in 80 μl of methanol/water (50/50) prior to UHPLC-Q-Exactive Orbitrap MS analysis. All the screening assays were carried out in triplicate. Except for the replacement of the ER, the affinity ultrafiltration screening method of ER β is similar to that of ER α in the other steps.
The analyses are exercised on Q-Exactive Focus Orbitrap MS connected to Thermo Scientific Dionex Ultimate 3000 RS through an ESI source. […] The 0.1% formic acid and acetonitrile were used as the mobile phases A and B, respectively. […] For the MS/MS analysis, the mass spectrometer equipped with an electrospray ionization source was obtained with a resolution of 70,000 detected by the Orbitrap analyzer. In order to comprehensively explore compounds, the positive and negative ion modes were both selected. The mass spectrometry conditions are as follows: electrospray ion source, the spray voltage was 3.5 kV for positive ion mode and 3.2 kV for negative ion mode, sheath gas pressure was 35 arb, auxiliary gas pressure was 10 arb, and the temperature of capillary and auxiliary gas heater was 320°C and 350°C, respectively; and the S-lens RF level was 60. Full-scan data were acquired from m/z 100–1,200 by data-dependent MS^2 scanning or parallel reaction monitoring (PRM) mode. The nitrogen gas served as collision gas, and the energy was set as normalized collision energy 30%. Instrument and data were controlled by the Xcalibur software version 4.2.
Therefore, affinity ultrafiltration can rapidly screen and identify bioactive compounds in complex plant extracts by comparing the changes in peak areas before and after ultrafiltration.

[2] = biological target: T2, ER β (Homo sapiens, UniProt Q92731); assay: Affinity ultrafiltration LC-MS screening (AUF-LC-MS) of Arnebiae Radix extract against ER β; details: specific binding = Aa/Ab (relative peak area active group / denatured group), extract 5.0 mg/ml, ER β 200 µg/ml, 37°C 60 min, <1.5 = non-ligand
T2 construct: purchased Shanghai Tongwei Biotechnology Co., Ltd. (China)
Protocol: as §1
The analyses are exercised on Q-Exactive Focus Orbitrap MS connected to Thermo Scientific Dionex Ultimate 3000 RS through an ESI source. For the chromatographic separation, a Thermo Scientific Hypersil GOLD™ aQ (100 mm × 2.1 mm, 1.9 μm) was applied at the flow rate of 0.3 ml/min. The 0.1% formic acid and acetonitrile were used as the mobile phases A and B, respectively. The optimized UHPLC elution procedures were conducted as follows: 0–2 min, 95%–90% A; 2–5 min, 90%–80% A; 5–10 min, 80%–75% A; 10–15 min, 75%–50% A; 15–25 min, 50%–45% A; 25–40 min, 45%–20% A; 40–45 min, 20%–5% A; 45–45.1 min, 5%–95% A; 45–50 min, 95% A. The column temperature was maintained at 35°C. For the MS/MS analysis, the mass spectrometer equipped with an electrospray ionization source was obtained with a resolution of 70,000 detected by the Orbitrap analyzer. In order to comprehensively explore compounds, the positive and negative ion modes were both selected. The mass spectrometry conditions are as follows: electrospray ion source, the spray voltage was 3.5 kV for positive ion mode and 3.2 kV for negative ion mode, sheath gas pressure was 35 arb, auxiliary gas pressure was 10 arb, and the temperature of capillary and auxiliary gas heater was 320°C and 350°C, respectively; and the S-lens RF level was 60. Full-scan data were acquired from m/z 100–1,200 by data-dependent MS^2 scanning or parallel reaction monitoring (PRM) mode. The nitrogen gas served as collision gas, and the energy was set as normalized collision energy 30%. Instrument and data were controlled by the Xcalibur software version 4.2.
Therefore, affinity ultrafiltration can rapidly screen and identify bioactive compounds in complex plant extracts by comparing the changes in peak areas before and after ultrafiltration. […] According to literature reports ([Munigunti et al., 2011]), compounds whose specific binding values were less than 1.5 were considered as non-ligands.

[3] = biological target: T2, ER β; assay: SPR binding measurements (Biacore T200) on immobilized ER β; details: for kon: read-out: Ka (association rate constant); for koff: read-out: Kd (dissociation rate constant)
Protocol: SPR binding measurements were performed using a Biacore T200 biosensor system (Cytiva, USA). All the SPR-based materials were acquired from Cytiva.
ER β was dissolved in PBS at 1.0 mg/ml and was then diluted in 20 μg/ml sodium acetate buffer at pH 5.0 and immobilized on a CM5 chip using an amine coupling kit. Sulfo-NHS (0.1 mol/l) and EDC (0.4 mol/l) with a 1:1 volume ratio were mixed at 25°C and flowed through a chip channel at 10 μl/min. ERβ was flowed through the chip channel at the same flow rate and reacted with the activated carboxyl groups on the chip for 600 s. Ethanolamine hydrochloride flowed through the chip channel at the same flow rate for 360 s.
Sensor preparation and interaction analyses were performed at 25°C in the PBS running buffer. Each analyte was dissolved in DMSO at 1 mg/ml and then dissolved in the running buffer at 0.20, 0.39, 0.78, 1.56, 3.13, 6.25, 12.5, and 25 μg/ml for SPR measurements.
The running buffer was used as the blank control. Eight groups of gradient concentrations of the same analyte (and the blank control) were flowed through the immobilized channel at a flow rate of 30 μl/min, with an association time of 180s and a dissociation time of 300 s. The collected signals were monitored in real time, and a reference flow cell without immobilized ER β served as a non-specific binding control. The rate constants of association and dissociation were calculated by the non-linear fitting method including the simultaneous fitting for the association and dissociation phases in each sensorgram in Biacore Evaluation Software version 3.2.1 (Cytiva, USA).

[4] = biological target: thrombin; parameters: method as in Wang et al., 2017; details: SPR, direct interaction with thrombin; ref Wang et al., 2017; cited from earlier work
[5] = SPR, ER β on CM5 chip, 25°C, PBS running buffer, read-out: KD
[6] = SPR, ER β on CM5 chip, 25°C, PBS running buffer

T2 sequence (Q92731 whole entry): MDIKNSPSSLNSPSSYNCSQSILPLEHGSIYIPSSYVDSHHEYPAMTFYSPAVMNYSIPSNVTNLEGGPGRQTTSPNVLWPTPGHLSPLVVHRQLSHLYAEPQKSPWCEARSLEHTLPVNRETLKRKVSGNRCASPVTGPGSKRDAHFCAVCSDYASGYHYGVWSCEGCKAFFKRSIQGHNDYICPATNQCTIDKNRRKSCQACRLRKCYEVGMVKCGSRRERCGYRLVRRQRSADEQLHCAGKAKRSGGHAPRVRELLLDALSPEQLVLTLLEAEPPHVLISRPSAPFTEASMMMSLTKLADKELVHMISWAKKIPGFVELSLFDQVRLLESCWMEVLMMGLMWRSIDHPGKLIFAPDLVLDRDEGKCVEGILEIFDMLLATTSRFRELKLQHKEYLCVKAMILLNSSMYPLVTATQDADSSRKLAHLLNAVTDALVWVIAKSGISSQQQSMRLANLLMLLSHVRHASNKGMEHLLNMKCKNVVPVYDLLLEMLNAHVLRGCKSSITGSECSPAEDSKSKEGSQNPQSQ

Row | Specific binding [1] | Specific binding [2] | Rmax ([3]; SPR, ER β on CM5 chip, 25°C) | Kd [3, 5] | SMILES | other results
1 | 5.77 |  |  |  | O=C(O)CCCCC(=O)O [Adipic acid] | 
2 | 5.02 | 1.78 |  |  | O=C(O)CC(O)(CC(=O)O)C(=O)O [Citric acid] | 
3 |  | 1.91 | 9.57 RU | 1040 nM | O=c1c(O[C@@H]2O[C@H](CO)[C@@H](O)[C@H](O)[C@H]2O)c(-c2ccc(O)c(O)c2)oc2cc(O)cc(O)c12 [Isoquercitrin] | kon [3, 6]: 3020 M⁻¹ s⁻¹; koff [3, 6]: 0.00314 s⁻¹
4 |  | 2.20 |  |  | O=C(O)CC(O)C(=O)O (stereo not shown) [Malic acid] | 
5 |  | 2.29 |  |  | CCCC[C@H](N)C(=O)O [Norleucine] | 
6 | 6.36 | 2.39 |  |  | N[C@@H](Cc1ccccc1)C(=O)O [Phenylalanine] | 
7 |  | 2.66 | 4.41 RU | 1320 nM | O=C(/C=C/c1ccc(O)c(O)c1)O[C@H](Cc1ccc(O)c(O)c1)C(=O)O [Rosmarinic acid] | kon [3, 6]: 2020 M⁻¹ s⁻¹; koff [3, 6]: 0.00266 s⁻¹
8 |  |  | 7.78 RU | 934 nM | C[C@@H]1O[C@@H](OC[C@H]2O[C@@H](Oc3c(-c4ccc(O)c(O)c4)oc4cc(O)cc(O)c4c3=O)[C@H](O)[C@@H](O)[C@@H]2O)[C@H](O)[C@H](O)[C@H]1O [Rutin] | 
9 |  | 1.75 | 12.6 RU | 1980 nM | O=C(/C=C/c1ccc(O)c2oc(-c3ccc(O)c(O)c3)cc12)O[C@H](Cc1ccc(O)c(O)c1)C(=O)O [Salvianolic acid C] | kon [3, 6]: 1390 M⁻¹ s⁻¹; koff [3, 6]: 0.00276 s⁻¹
10 | 2.15 |  |  |  | COc1ccc(C2COc3cc(O)ccc3C2)c(OC)c1 (stereo not shown) [Sativan] | 
11 |  |  |  |  | COc1ccc2cc3[n+](cc2c1OC)CCc1cc2c(cc1-3)OCO2 [berberine] | Kd [4]: 16400 nM

Row | SMILES | Specific binding [1] | Specific binding [2] | Rmax ([3]; SPR, ER β on CM5 chip, 25°C) | Kd [3, 5] | other results
12 | CC(C)=CCCC1=CC(=O)c2c(O)ccc(O)c2C1=O [Deoxyshikonin] | 2.28 |  |  |  | 
13 | O=c1c(O)c(-c2ccc(O)c(O)c2)oc2cc(O)cc(O)c12 [Quercetin] |  | 1.54 | 13.28 RU | 1260 nM | kon [3]: 2950 M⁻¹ s⁻¹; koff [3]: 0.00372 s⁻¹
14 | O=C(/C=C/c1ccc(O)c2c1[C@H](C(=O)O[C@H](Cc1ccc(O)c(O)c1)C(=O)O)[C@@H](c1ccc(O)c(O)c1)O2)O[C@H](Cc1ccc(O)c(O)c1)C(=O)O [Salvianolic acid B] |  | 2.24 | 3.51 RU |  | Kd [3]: 2320 nM; kon [3, 6]: 788 M⁻¹ s⁻¹; koff [3, 6]: 0.00183 s⁻¹
